± gives the standard deviation of the averaged measurements.
Assays:
Assay in all cases: level (log10 ratio to DMSO vehicle control); higher = higher biomarker level / cell amount than vehicle control
Conditions in all cases: in DMSO
[1] = compound: O=S(=O)(O)C(F)(F)C(F)(F)C(F)(F)C(F)(F)C(F)(F)C(F)(F)C(F)(F)C(F)(F)F [Potassium perfluorooctanesulfonate]
Protocol: (§1)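 BioMAP Diversity Plus panel of 12 human primary cell co-culture systems (3C, 4H, LPS, SAg, BT, BF4T, BE3C, CASM3C, HDF3CGF, KF3CT, MyoF, Mphg). Compounds were added 1 h before stimulation and left for 24 h (MyoF 48 h; BT 72 h for soluble read-outs or 6 d for IgG). Biomarkers were read by ELISA, cytotoxicity by SRB, PBMC viability and proliferation by Alamar Blue. Each well value was divided by the mean of 8 DMSO control wells on the same plate and log10 transformed; duplicate blinded samples were tested at 4 concentrations.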

[2] = compound: C=C(C)C(=O)OCC(F)(F)C(F)(F)C(F)(F)C(F)(F)C(F)(F)C(F)(F)C(F)(F)F
Protocol: as §1

[3] = compound: O=P(O)(O)CCC(F)(F)C(F)(F)C(F)(F)C(F)(F)C(F)(F)C(F)(F)C(F)(F)C(F)(F)F [((Perfluorooctyl)ethyl)phosphonic acid]
Protocol: as §1

Test System	level (log10) ([1]; 6700 nM)	level (log10) ([1]; 20000 nM)	level (log10) ([1]; 60000 nM)	level (log10) ([2]; 6700 nM)	level (log10) ([2]; 20000 nM)	level (log10) ([3]; 6700 nM)	level (log10) ([3]; 20000 nM)	level (log10) ([3]; 60000 nM)
HDF3CGF:CD106/VCAM-1	-0.032 ± 0.027	-0.0925 ± 0.018	-0.281 ± 0.026	-0.01 ± 0.037	-0.017 ± 0.11	0.098 ± 0.0028	-0.006 ± 0.0085	-0.145 ± 0.012
MyoF:bFGF	-0.0105 ± 0.025	-0.0195 ± 0.023	-0.019 ± 0.028	0.005 ± 0.016	0.015 ± 0.025	-0.0245 ± 0.018	-0.024 ± 0.018	-0.0585 ± 0.037
CASM3C:CXCL9/MIG	0.015 ± 0.0071	0.012 ± 0.016	0.09 ± 0.027	0.0005 ± 0.011	0.014 ± 0.014	0.0115 ± 0.011	0.019 ± 0.028	0.041 ± 0.03
CASM3C:IL-6	-0.025 ± 0.0042	-0.0285 ± 0.016	-0.0425 ± 0.083	-0.0235 ± 0.0092	0.015 ± 0.013	-0.0215 ± 0.06	-0.004 ± 0.025	0.0865 ± 0.032
BE3C:PAI-I	-0.0115 ± 0.012	-0.255 ± 0.03	-0.253 ± 0.037	0.0055 ± 0.0078	0.0105 ± 0.018	0.015 ± 0.0014	-0.0115 ± 0.011	-0.032 ± 0.0042
KF3CT:SRB	-0.0075 ± 0.0078	-0.011 ± 0.0014	-0.006 ± 0.0057	-0.0185 ± 0.0092	-0.015 ± 0.011	0.0025 ± 0.0035	-0.001 ± 0.013	0.0085 ± 0.00071
MyoF:Collagen I	-0.0145 ± 0.023	-0.0095 ± 0.013	0.0075 ± 0.021	0.01	-0.007 ± 0.0071	-0.021 ± 0.0014	-0.014 ± 0.0057	-0.009 ± 0.035
HDF3CGF:TIMP-2	-0.055 ± 0.03	-0.108 ± 0.019	-0.137 ± 0.038	0.0535 ± 0.0092	0.0035 ± 0.056	0.0645 ± 0.013	0.0485 ± 0.0021	-0.029 ± 0.018
HDF3CGF:Collagen I	0.0215 ± 0.0064	-0.0125 ± 0.0092	-0.0295 ± 0.061	-0.0035 ± 0.0078	0.0375 ± 0.005	-0.041	-0.116 ± 0.015	-0.148 ± 0.1
HDF3CGF:CXCL11/I-TAC	0.0005 ± 0.019	-0.0375 ± 0.015	-0.135 ± 0.0028	0.016 ± 0.0071	-0.009 ± 0.023	0.084 ± 0.0014	0.064 ± 0.018	-0.0155 ± 0.035
HDF3CGF:EGFR	-0.0055 ± 0.019	-0.0305 ± 0.012	-0.0905 ± 0.029	0.0245 ± 0.005	-0.007 ± 0.048	-0.0125 ± 0.016	-0.045 ± 0.024	-0.126 ± 0.059
CASM3C:M-CSF	0.003 ± 0.028	0.016 ± 0.016	-0.007 ± 0.064	-0.0155 ± 0.0092	0.0165 ± 0.03	-0.0145 ± 0.011	-0.008 ± 0.011	0.045 ± 0.04
CASM3C:CCL2/MCP-1	0.001 ± 0.024	0.01 ± 0.0057	0.0405 ± 0.021	-0.015 ± 0.0042	0.007 ± 0.018	-0.007 ± 0.0071	-0.0085 ± 0.013	0.012 ± 0.058
lMphg:CD69	-0.04 ± 0.0028	-0.052 ± 0.02	-0.074 ± 0.04	-0.0135 ± 0.018	-0.004 ± 0.038	-0.0125 ± 0.013	-0.0425 ± 0.04	0.0275 ± 0.043
CASM3C:SRB	0.011 ± 0.0042	0.004	0.006	-0.0005 ± 0.00071	0 ± 0.0071	-0.0115 ± 0.0035	-0.017 ± 0.0028	-0.008 ± 0.0085
3C:CD141/Thrombomodulin	0.007 ± 0.018	-0.0055 ± 0.033	0.041 ± 0.0071	-0.038 ± 0.0057	-0.0015 ± 0.032	-0.0115 ± 0.00071	-0.0115 ± 0.0078	0.013 ± 0.016
KF3CT:PAI-I	-0.044 ± 0.027	-0.053 ± 0.0071	-0.125 ± 0.024	-0.004 ± 0.02	0.006 ± 0.0014	-0.037 ± 0.035	-0.055 ± 0.02	-0.0595 ± 0.03
CASM3C:Serum Amyloid A	0.0085 ± 0.026	0.001 ± 0.03	0.0125 ± 0.057	-0.014 ± 0.0028	-0.009 ± 0.0042	-0.0065 ± 0.044	-0.0225 ± 0.015	0.083 ± 0.055

Test System	level (log10) ([1]; 6700 nM)	level (log10) ([1]; 20000 nM)	level (log10) ([1]; 60000 nM)	level (log10) ([2]; 6700 nM)	level (log10) ([2]; 20000 nM)	level (log10) ([3]; 6700 nM)	level (log10) ([3]; 20000 nM)	level (log10) ([3]; 60000 nM)
HDF3CGF:CCL2/MCP-1	0.002 ± 0.011	-0.003 ± 0.0042	0.001 ± 0.017	-0.0205 ± 0.03	-0.007 ± 0.0042	0.028 ± 0.011	-0.005 ± 0.0014	-0.0855 ± 0.056
CASM3C:CD141/Thrombomodulin	0.0235 ± 0.0021	-0.004 ± 0.018	-0.021 ± 0.031	0.002 ± 0.048	-0.0265 ± 0.035	-0.01 ± 0.0071	-0.014 ± 0.0042	0.0245 ± 0.015
KF3CT:CD54/ICAM-1	-0.0165 ± 0.021	0.0075 ± 0.011	0.002 ± 0.027	0.0045 ± 0.019	-0.018 ± 0.031	0.019 ± 0.034	0.013 ± 0.018	-0.0055 ± 0.049
lMphg:CD40	-0.0245 ± 0.0035	-0.0125 ± 0.0092	0.002 ± 0.017	-0.0265 ± 0.0064	-0.025 ± 0.0042	-0.015 ± 0.017	-0.065 ± 0.017	-0.037 ± 0.021
HDF3CGF:CXCL10/IP-10	-0.0815 ± 0.03	-0.131 ± 0.06	-0.313 ± 0.044	-0.012 ± 0.0042	-0.002 ± 0.025	0.077 ± 0.0014	0.0255 ± 0.005	-0.0375 ± 0.005
MyoF:Collagen III	-0.0275 ± 0.018	-0.028 ± 0.031	-0.0365 ± 0.025	-0.014 ± 0.0014	-0.014 ± 0.0042	-0.013 ± 0.014	-0.013 ± 0.017	-0.073 ± 0.05
HDF3CGF:MMP-1	-0.0075 ± 0.011	-0.0155 ± 0.0092	-0.0025 ± 0.005	-0.003 ± 0.02	-0.0045 ± 0.026	-0.019 ± 0.011	-0.021 ± 0.0057	-0.05 ± 0.0042
lMphg:SRB	-0.0065 ± 0.015	-0.01 ± 0.0071	-0.015 ± 0.011	-0.012 ± 0.016	-0.015 ± 0.016	0 ± 0.0071	-0.0105 ± 0.0078	-0.044 ± 0.0085
HDF3CGF:Proliferation 72hr	0.13 ± 0.079	0.155 ± 0.09	-0.732 ± 0.039	0.019 ± 0.018	0.001 ± 0.038	0.017 ± 0.065	-0.0105 ± 0.087	-0.374 ± 0.034
lMphg:CD106/VCAM-1	-0.012 ± 0.018	0.0015 ± 0.005	-0.038 ± 0.017	-0.0385 ± 0.0035	-0.0535 ± 0.026	-0.013 ± 0.016	-0.0455 ± 0.018	-0.055 ± 0.0014
KF3CT:MMP-9	-0.013 ± 0.0099	-0.038 ± 0.0042	-0.0735 ± 0.023	0.012 ± 0.03	0.009 ± 0.027	-0.0095 ± 0.0064	-0.027 ± 0.0042	-0.0365 ± 0.013
3C:CD62E/E-Selectin	-0.0025 ± 0.015	0.0195 ± 0.046	0.063 ± 0.035	0.0095 ± 0.023	0.0075 ± 0.0092	-0.011 ± 0.025	-0.032 ± 0.021	-0.056 ± 0.011
lMphg:M-CSF	-0.0005 ± 0.005	-0.004 ± 0.0057	0.035 ± 0.016	-0.0185 ± 0.0035	-0.0025 ± 0.033	-0.0235 ± 0.0064	-0.039 ± 0.0057	-0.0405 ± 0.0078
HDF3CGF:CXCL8/IL-8	-0.007 ± 0.0085	-0.0065 ± 0.0035	0.004 ± 0.013	-0.0015 ± 0.016	0.0045 ± 0.00071	-0.0065 ± 0.022	-0.005 ± 0.0057	-0.0485 ± 0.011
MyoF:Collagen IV	0.024 ± 0.017	0.0125 ± 0.022	0.0175 ± 0.05	-0.0155 ± 0.0064	0.0195 ± 0.016	-0.0005 ± 0.013	0.012 ± 0.025	-0.01 ± 0.057
3C:CD106/VCAM-1	0.001 ± 0.016	0.013 ± 0.023	0.0375 ± 0.037	-0.0145 ± 0.005	-0.0025 ± 0.018	-0.0115 ± 0.016	-0.0345 ± 0.005	-0.054 ± 0.0042
KF3CT:IL-1alpha	-0.0105 ± 0.016	-0.0085 ± 0.026	-0.029 ± 0.0028	-0.014 ± 0.023	0.0015 ± 0.0092	0.0025 ± 0.019	0.0035 ± 0.011	0.0025 ± 0.029

Source: the supplement of paper PMC10331698
